From US3941842A, “P,P'-Disubstituted α-trichloromethylbenzylanilines” (priority 1972, dated 1976) come the findings set out here.

Data set [1] has as its system Musca domestica Snaidm. In words: Topical LD50 to adult female SNAIDM houseflies. As to conditions: for LD50: Musca domestica, read-out: Topical LD50, Musca domestica Snaidm, Alone; for LD50 / Topical LD50, Musca domestica Snaidm, with pb: topical; for Topical LD50, Musca domestica Snaidm, with pb: SNAIDM strain, synergized with piperonyl butoxide; for SR, Musca domestica Snaidm: synergistic ratio: LD50 alone/LD50 synergized with piperonyl butoxide. As to the method:
(§1) The compounds of the present invention were tested for insecticidal activity by standard methods, and compared with the insecticidal activities of DDT and symmetrical analogs of DDT, such methoxychlor. Toxicological methods for the determination of the topical LD50 values to adult female SNAIDM and RSP houseflies, Musca domestica L. and to Phormia regina, and LC50 values to Culex pipiens quinquefasciatus Say, and Anopheles albimanus Weid mosquitoes were described by Metcalf el al., 44 Bull. World Health Org. 363 (1971). The methods for evaluation of metabolism by mouse liver homogenate and by female RSP housefly and salt-marsh caterpillar larvae Estigmene acrea Drury, were described by Kapoor et al., 18 J. Agr. Food Chem. 1145 (1970). The techniques for model eocsystem evluation were described by Metcalf et al., 5 J. Environ. Sci. Tech. 709 (1971).
(§2) Since piperonyl butoxide serves to block the action of MFO, the synergized LD50 values express the intrinsic toxicity of the compounds. With the detoxifying action of MFO enzymes blocked, the intrinsic toxicity of the compounds can thus be measured.

The test system of data set [2] is Musca domestica Rsp. Description: Topical LD50 to adult female RSP houseflies. As to conditions: for LD50: Musca domestica, read-out: Topical LD50, Musca domestica Rsp, Alone; for LD50 / Topical LD50, Musca domestica Rsp, with pb: topical; for Topical LD50, Musca domestica Rsp, with pb: RSP strain, synergized with piperonyl butoxide; for SR, Musca domestica Rsp: synergistic ratio: LD50 alone/LD50 synergized with piperonyl butoxide. As to the method: as §1, §2

The subject of data set [3] is Phormia regina. Description: whole plant or invertebrate. The settings on record: for LD50: Phormia regina, read-out: Topical LD50, Phormia regina, Alone; for LD50 / Topical LD50, Phormia regina, with pb: topical; for SR, Phormia regina: synergistic ratio: LD50 alone/LD50 synergized with piperonyl butoxide; for Topical LD50, Phormia regina, with pb: synergized with piperonyl butoxide. Here is the method:
as §1, with “363 (1971).” left out, “Food Chem. 1145 (1970).” left out, “Tech.” for “Tech. 709 (1971).”
as §2

The test system of data set [4] is Anopheles albimanus larvae. Description: LC50 to Anopheles albimanus larvae. The data set is classed as in vivo, Anopheles albimanus Weid. The source says:
(§3) World Health Org. 363 (1971). […] Food Chem. 1145 (1970). […] Sci. Tech. 709 (1971). The results are detailed in Table II. ##SPC1##

The subject of data set [5] is Culex fatigans larvae. Description: LC50 to Culex fatigans larvae. It is filed as in vivo, Culex pipiens quinquefasciatus Say.
Description: as §3

Data set [6] is described as follows: Model ecosystem: distribution, ecological magnification and Biodegradability Index. As to conditions: 33 days, 5.0 mg 3H-ethoxyaniline to Sorghum. The source says:
After the amounts of the various metabolites have been calculated and a determination is made as to which of the metabolites are to be designated as "polar" and which are to be designated as "non-polar", a Biodegradability Index (amount of polar metabolites/amount of nonpolar metabolites) may be calculated. Remembering that nonpolar compounds, such as DDT are readily soluble in the fatty tissues, but are not readily soluble in water based solutions, and that the cell fluid is essentially a water based solution, the lower the Biodegradability Index, the lower the amount of biodegradability of the compound. The higher the amount of polarity, the greater the likelihood that the polar compound will dissolve in water, a very polar compound, and be eliminated from the cell.
The environmental fate of any new pesticide is a factor of paramount importance in determining how and where it might be used. The behavior of ^3 H-α-trichloromethyl-p-ethoxybenzyl-p-ethoxyaniline has been studied by the model ecosystem technique following application of 5.0 mg. of labeled compound to Sorghum plants. A summary of
metabolites from the organisms in the model ecosystem after 33 days were
identified by cochromatography with standards of known constitution, by
appropriate chromogenic reagents, and by high-resolution mass
spectrometry. The data of Table IV indicate the O-dealkylation of
Food Chem. 1 (1972). Ethoxychlor was found in the snail to 58.6 ppm and in the fish to 0.92 ppm, along with its ethylene and the mono- and bis-phenols formed by O-dealkylation. The ecological magnification (E.M.) of ethoxychlor, defined as the ratio of the parent material in the fish to the concentration in the water, was 1500-fold as compared with an E.M. of only 0.7-fold for the ethoxyaniline.
Comparing the Biodegradability Indices (B.I.=total recovered polar metabolites/total recovered nonpolar metabolites) the values are 0.44 for ethoxychlor and 2.0 for ethoxyaniline.

For `COc1ccc(C(Nc2ccc(C)cc2)C(Cl)(Cl)Cl)cc1` (stereo not drawn) [IX], in data set [1], the LD50 (as a rule, the dose at which mortality reaches 50%) came out at 35 mg/kg; the “Topical LD50, Musca domestica Snaidm, with pb” value came to 8.5 μg per g; the “SR, Musca domestica Snaidm” value is 4.1. Besides, in data set [2], the 50% lethal dose (LD50) amounted to 50 mg/kg; the “Topical LD50, Musca domestica Rsp, with pb” value was 12.0 μg per g; the “SR, Musca domestica Rsp” value amounted to 4.5. Further, in data set [3], the LD50 amounted to 16.5 mg/kg; the “SR, Phormia regina” value was 1.4; the “Topical LD50, Phormia regina, with pb” value was determined as 11.50 μg per g. Besides, the “LC50 Anopheles albimanus larvae” value in data set [4] is listed as 0.28 ppm. In addition, the “LC50 Culex fatigans larvae” value in data set [5] is 0.26 ppm.

For the compound `CCOc1ccc(NC(c2ccc(Cl)cc2)C(Cl)(Cl)Cl)cc1` (stereo not drawn) [VIII], in data set [1], the LD50 turned out to be 19.5 mg/kg; the “Topical LD50, Musca domestica Snaidm, with pb” value is 4.1 μg per g; the “SR, Musca domestica Snaidm” value amounted to 4.8. For the same compound, in data set [2], the LD50 is 45 mg/kg; the “Topical LD50, Musca domestica Rsp, with pb” value turned out to be 13.0 μg per g; the “SR, Musca domestica Rsp” value was 3.5. In data set [3], the LD50 was 37.5 mg/kg; the “SR, Phormia regina” value is 2.8; the “Topical LD50, Phormia regina, with pb” value is 13.2 μg per g. The “LC50 Anopheles albimanus larvae” value in data set [4] is 0.26 ppm. In data set [5], the “LC50 Culex fatigans larvae” value amounted to 0.22 ppm.

As to `CCOc1ccc(NC(c2ccc(C)cc2)C(Cl)(Cl)Cl)cc1` (stereo not drawn) [XII], in data set [1], the LD50 was 35 mg/kg; the “Topical LD50, Musca domestica Snaidm, with pb” value was 14.5 μg per g; the “SR, Musca domestica Snaidm” value is recorded as 2.4. For the same compound, in data set [2], the LD50 worked out at 70 mg/kg; the “Topical LD50, Musca domestica Rsp, with pb” value turned out to be 19.5 μg per g; the “SR, Musca domestica Rsp” value was 3.6. In addition, in data set [3], the LD50 was 95 mg/kg; the “SR, Phormia regina” value is listed as 2.2; the “Topical LD50, Phormia regina, with pb” value is 42.5 μg per g. For the same compound, the “LC50 Anopheles albimanus larvae” value in data set [4] stood at 0.30 ppm. Further, the “LC50 Culex fatigans larvae” value in data set [5] is given as 0.33 ppm.

For `CCOc1ccc(NC(c2ccc(O)cc2)C(Cl)(Cl)Cl)cc1` (stereo not drawn) [C2 H5 OC6 H4 NHCH(CCl3)C6 H4 OH, α-trichloromethyl-p-hydroxybenzyl-p-ethoxyaniline], in data set [6], the “Concentration of ethoxyaniline equivalents in Culex (mosquito)” value came to 0.13 ppm, the “Concentration of ethoxyaniline equivalents in Gambusia (fish)” value was 0.08 ppm, the “Concentration of ethoxyaniline equivalents in H2O” value worked out at 0.031 ppm and the “Concentration of ethoxyaniline equivalents in Oedogonium (algae)” value amounted to 0.43 ppm. Also, in data set [6], the “Concentration of ethoxyaniline equivalents in Physa (snail)” value is 2.02 ppm.

Take `CCOc1ccc(NC(c2ccc3c(c2)OCO3)C(Cl)(Cl)Cl)cc1` (stereo not drawn) [Compound XVII]: in data set [1], the LD50 amounted to 19.5 mg/kg; the “Topical LD50, Musca domestica Snaidm, with pb” value is given as 3.8 μg per g; the “SR, Musca domestica Snaidm” value is recorded as 5.1. In data set [2], the LD50 was found to be 35.5 mg/kg; the “Topical LD50, Musca domestica Rsp, with pb” value was 11.0 μg per g; the “SR, Musca domestica Rsp” value was 3.2. Moreover, in data set [3], the LD50 is more than 250 mg/kg; the “SR, Phormia regina” value is more than 7.7; the “Topical LD50, Phormia regina, with pb” value is 32.5 μg per g. In data set [4], the “LC50 Anopheles albimanus larvae” value worked out at 0.25 ppm. For the same compound, the “LC50 Culex fatigans larvae” value in data set [5] is listed as 0.23 ppm.

In the case of `CCOc1ccc(C(Nc2ccc(OC)cc2)C(Cl)(Cl)Cl)cc1` (stereo not drawn) [XIII], in data set [1], the LD50 is 23.5 mg/kg; the “Topical LD50, Musca domestica Snaidm, with pb” value was 5.5 μg per g; the “SR, Musca domestica Snaidm” value is recorded as 4.2. Moreover, in data set [2], the LD50 was found to be 41 mg/kg; the “Topical LD50, Musca domestica Rsp, with pb” value is reported as 12.5 μg per g; the “SR, Musca domestica Rsp” value amounted to 3.3. Moreover, in data set [3], the LD50 was 22 mg/kg; the “SR, Phormia regina” value was determined as 1.8; the “Topical LD50, Phormia regina, with pb” value worked out at 12.5 μg per g. Moreover, the “LC50 Anopheles albimanus larvae” value in data set [4] came to 0.68 ppm. Besides, the “LC50 Culex fatigans larvae” value in data set [5] came out at 0.42 ppm.

As to `Cc1ccc(C(Nc2ccc(Cl)cc2)C(Cl)(Cl)Cl)cc1` (stereo not drawn) [Compound XV], in data set [1], the LD50 was 90 mg/kg; the “Topical LD50, Musca domestica Snaidm, with pb” value was found to be 21.0 μg per g; the “SR, Musca domestica Snaidm” value came to 4.3. In data set [2], the LD50 was approximately 500 mg/kg; the “Topical LD50, Musca domestica Rsp, with pb” value is recorded as 36.0 μg per g; the “SR, Musca domestica Rsp” value came out at 14. In data set [3], the 50% lethal dose (LD50) is 72.5 mg/kg; the “SR, Phormia regina” value came to 1.1; the “Topical LD50, Phormia regina, with pb” value stood at 62.5 μg per g. Moreover, the “LC50 Anopheles albimanus larvae” value in data set [4] is recorded as 0.13 ppm. The “LC50 Culex fatigans larvae” value in data set [5] worked out at 0.066 ppm.

For the compound `CCOc1ccc(NC(c2ccc(OC)cc2)C(Cl)(Cl)Cl)cc1` (stereo not drawn) [XIV], in data set [1], the 50% lethal dose (LD50) is 30 mg/kg; the “Topical LD50, Musca domestica Snaidm, with pb” value was determined as 3.9 μg per g; the “SR, Musca domestica Snaidm” value is given as 7.7. Besides, in data set [2], the LD50 turned out to be 37 mg/kg; the “Topical LD50, Musca domestica Rsp, with pb” value is 12.0 μg per g; the “SR, Musca domestica Rsp” value is on record as 3.1. In data set [3], the 50% lethal dose (LD50) stood at 112 mg/kg; the “SR, Phormia regina” value worked out at 5.6; the “Topical LD50, Phormia regina, with pb” value came to 20.0 μg per g. For the same compound, the “LC50 Anopheles albimanus larvae” value in data set [4] turned out to be 1.0 ppm. For the same compound, the “LC50 Culex fatigans larvae” value in data set [5] is recorded as 0.34 ppm.

On to `CCOc1ccc(C(=O)O)cc1` [C2 H5 OC6 H4 C(O)OH, p-ethoxybenzoic acid], for which, in data set [6], the “Concentration of ethoxyaniline equivalents in Culex (mosquito)” value turned out to be 0.06 ppm, the “Concentration of ethoxyaniline equivalents in Gambusia (fish)” value was 0.03 ppm, the “Concentration of ethoxyaniline equivalents in H2O” value is 0.123 ppm and the “Concentration of ethoxyaniline equivalents in Oedogonium (algae)” value turned out to be 0.38 ppm. Besides, in data set [6], the “Concentration of ethoxyaniline equivalents in Physa (snail)” value worked out at 1.800 ppm.

For the compound `CCOc1ccc(C(Nc2ccc(C)cc2)C(Cl)(Cl)Cl)cc1` (stereo not drawn) [XI, α-trichloromethyl-p-ethoxybenzyl-p-methylaniline], in data set [1], the LD50 came out at 12.5 mg/kg; the “Topical LD50, Musca domestica Snaidm, with pb” value turned out to be 2.5 μg per g; the “SR, Musca domestica Snaidm” value was 5.0. In addition, in data set [2], the LD50 was 14 mg/kg; the “Topical LD50, Musca domestica Rsp, with pb” value turned out to be 4.4 μg per g; the “SR, Musca domestica Rsp” value is reported as 3.2. In data set [3], the LD50 turned out to be 7.7 mg/kg and the “Topical LD50, Phormia regina, with pb” value came to 4.2 μg per g. Moreover, the “LC50 Anopheles albimanus larvae” value in data set [4] turned out to be 0.085 ppm. Further, in data set [5], the “LC50 Culex fatigans larvae” value was found to be 0.073 ppm.

Turning to `Cc1ccc(NC(c2ccc(Cl)cc2)C(Cl)(Cl)Cl)cc1` (stereo not drawn) [Compound XVI], in data set [1], the LD50 was 65 mg/kg; the “Topical LD50, Musca domestica Snaidm, with pb” value worked out at 16 μg per g; the “SR, Musca domestica Snaidm” value was 4.1. For the same compound, in data set [2], the LD50 was found to be 125 mg/kg; the “Topical LD50, Musca domestica Rsp, with pb” value was found to be 30 μg per g; the “SR, Musca domestica Rsp” value is on record as 4.2. Further, in data set [3], the 50% lethal dose (LD50) worked out at 36.2 mg/kg; the “SR, Phormia regina” value amounted to 1.45; the “Topical LD50, Phormia regina, with pb” value is given as 25 μg per g. In addition, the “LC50 Anopheles albimanus larvae” value in data set [4] was 0.14 ppm. In addition, the “LC50 Culex fatigans larvae” value in data set [5] came out at 0.18 ppm.
